Experimental data: US7226924B2, “Substituted 3,4-dihydro-pyrimido[1,2a]pyrimidines and 3,4-dihydro-pyrazino[1,2a]pyrimidines, and methods for their preparation and use” (priority 2000, dated 2007)
pKi: −log10 of the molar value.

Legend:
[1] = system: NMDA/MK801-binding site; test: NMDA/MK801-binding site inhibition; design: dose or concentration left out as unconfirmed
From the text: (§1) Compounds according to the invention were investigated with respect to their pharmacological properties using methods described by J. P. Devlin in “High throughput screening—the discovery of bioactive substances,” Marcel Dekker, New York, 1997, pages 275 to 453.

[2] = molecular target: μ-opiate receptor (Homo sapiens, UniProt P35372); test: μ-opiate receptor binding; settings: read-out: Ki Value of the μ-opiate Receptor Bond
Chain of μ-opiate receptor (P35372 whole entry, species assumed): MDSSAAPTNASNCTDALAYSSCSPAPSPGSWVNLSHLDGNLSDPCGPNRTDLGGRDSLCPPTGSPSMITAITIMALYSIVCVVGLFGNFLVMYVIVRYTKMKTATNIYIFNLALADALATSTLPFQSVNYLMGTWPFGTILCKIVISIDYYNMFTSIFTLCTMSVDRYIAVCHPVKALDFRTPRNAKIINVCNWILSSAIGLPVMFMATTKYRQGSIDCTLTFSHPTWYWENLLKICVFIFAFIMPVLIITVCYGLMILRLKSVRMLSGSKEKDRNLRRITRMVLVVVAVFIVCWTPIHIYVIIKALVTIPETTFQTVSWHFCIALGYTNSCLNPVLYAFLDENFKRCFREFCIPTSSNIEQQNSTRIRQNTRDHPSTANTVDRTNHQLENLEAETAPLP
From the text: as §1

Compound | % inhibition of NMDA/MK801-binding site [1] | pKi [2]
N#CC1=NC(c2ccccc2)=CN2C1=NC(c1ccccn1)CC2Sc1ccccc1 (centres unmarked) [Example 52, 7-phenyl-4-phenylsulphanyl-2-pyridin-2-yl-3,4--dihydro-2H-pyrazino[1,2a]pyrimidine-9--carbonitrile] | 47% | 5.85
OC1=CC(O)=NC2=NC(c3ccccn3)C3C4C=CC(C4)C3N12 (centres unmarked) [Example 61, 5,8-methano-9-pyridin-2-yl-5,8,84,9-tetrahydro--4bH-1,4a,10-triaza-phenanthrene-2,4-diol] | 40% | 
BrC1=CN2C(=NC(c3ccccn3)CC2Sc2ccccc2)N=C1 (centres unmarked) [Example 53, 7-bromo-4-phenylsulphanyl-2-pyridin-2-yl-3,4--dihydro-2H-pyrimido[1,2a]pyrimidine] | 44% | 5.60
BrC1=CN2C(=NC(c3ccccn3)C3CCC=CC32)N=C1 (centres unmarked) [Example 62, 3-bromo-9-pyridin-2-yl-7,8,84,9-tetrahydro--4bH-1,44,10-triaza-phenanthrene] | 40% | 
NC(=O)C1=NC(Cl)=C(N)N2C1=NC(c1ccccn1)CC2Sc1ccccc1 (centres unmarked) [Example 51, 6-Amino-7-chlor-4-phenylsulphanyl-2-pyridin-2--yl-3,4-dihydro-2H-pyrazino[1,2a]pyrimidin-9--carboxylic acid amide] | 40% | 5.85
